{"source": "ChEMBL document CHEMBL1127881", "about": "(Bioorg Med Chem Lett, 1994)", "type_in_all_cases": "tissue-based", "key": {"[1]": {"biological_target": "Muscarinic acetylcholine receptor", "test": "Compound was tested for its ability to inhibit muscarinic receptor in rat cerebral cortex using [3H]oxotremorine-M (OXO-M); Range is 240-290"}, "[2]": {"biological_target": "Muscarinic acetylcholine receptor", "test": "Compound was tested for its ability to inhibit muscarinic receptor in rat cerebral cortex using [3H]quinuclidinyl benzilate (QNB);"}, "[3]": {"biological_target": "Muscarinic acetylcholine receptor", "test": "Compound was tested for its ability to inhibit muscarinic receptor in rat cerebral cortex using [3H]quinuclidinyl benzilate (QNB); Range is 9700-23000"}, "[4]": {"biological_target": "Muscarinic acetylcholine receptor", "test": "Compound was tested for its ability to inhibit muscarinic receptor in rat cerebral cortex using [3H]oxotremorine-M (OXO-M); Range is 65-260"}, "[5]": {"biological_target": "Muscarinic acetylcholine receptor", "test": "Compound was tested for its ability to inhibit muscarinic receptor in rat cerebral cortex using [3H]quinuclidinyl benzilate (QNB); Range is 3400-4200"}, "[6]": {"biological_target": "Muscarinic acetylcholine receptor", "test": "Compound was tested for its ability to inhibit muscarinic receptor in rat cerebral cortex using [3H]oxotremorine-M (OXO-M); Range is 21-36"}, "[7]": {"biological_target": "Muscarinic acetylcholine receptor", "test": "Compound was tested for its ability to inhibit muscarinic receptor in rat cerebral cortex using [3H]quinuclidinyl benzilate (QNB); Range is […]"}, "[8]": {"biological_target": "Muscarinic acetylcholine receptor", "test": "Compound was tested for its ability to inhibit muscarinic receptor in rat cerebral cortex using [3H]oxotremorine-M (OXO-M); Range is 28-58"}, "[9]": {"biological_target": "Muscarinic acetylcholine receptor", "test": "Compound was tested for its ability to inhibit muscarinic receptor in rat cerebral cortex using [3H]quinuclidinyl benzilate (QNB); Range is 730-1300"}, "[10]": {"biological_target": "Muscarinic acetylcholine receptor", "test": "Compound was tested for its ability to inhibit muscarinic receptor in rat cerebral cortex using [3H]oxotremorine-M (OXO-M); Range is 62-70"}, "[11]": {"biological_target": "Muscarinic acetylcholine receptor", "test": "Compound was tested for its ability to inhibit muscarinic receptor in rat cerebral cortex using [3H]quinuclidinyl benzilate (QNB); Range is 530-1100"}, "[12]": {"biological_target": "Muscarinic acetylcholine receptor", "test": "Compound was tested for its ability to inhibit muscarinic receptor in rat cerebral cortex using [3H]oxotremorine-M (OXO-M); Range is 48-100"}, "[13]": {"biological_target": "Muscarinic acetylcholine receptor", "test": "Compound was tested for its ability to inhibit muscarinic receptor in rat cerebral cortex using [3H]quinuclidinyl benzilate (QNB); Range is 330-360"}, "[14]": {"biological_target": "Muscarinic acetylcholine receptor", "test": "Compound was tested for its ability to inhibit muscarinic receptor in rat cerebral cortex using [3H]oxotremorine-M (OXO-M); Range is 18-21"}, "[15]": {"biological_target": "Muscarinic acetylcholine receptor", "test": "Compound was tested for its ability to inhibit muscarinic receptor in rat cerebral cortex using [3H]quinuclidinyl benzilate (QNB); Range is 4300-9500"}, "[16]": {"biological_target": "Muscarinic acetylcholine receptor", "test": "Compound was tested for its ability to inhibit muscarinic receptor in rat cerebral cortex using [3H]oxotremorine-M (OXO-M); Range is 120-220"}}}
{"smiles": "CO/N=C(/Cl)C1=CCCN(C)C1", "values": [{"measurement": "IC50", "setting": "[1]", "value": 260, "unit": "nM"}, {"measurement": "IC50", "setting": "[2]", "value": 2800, "unit": "nM"}]}
{"smiles": "CO/N=C\\C1=CCCN(C)C1", "values": [{"measurement": "IC50", "setting": "[3]", "value": 14000, "unit": "nM"}, {"measurement": "IC50", "setting": "[4]", "value": 110, "unit": "nM"}]}
{"smiles": "COC(=O)C1=CC2CCN(C1)C2", "note": "(configuration not stated)", "values": [{"measurement": "IC50", "setting": "[5]", "value": 3800, "unit": "nM"}, {"measurement": "IC50", "setting": "[6]", "value": 27, "unit": "nM"}]}
{"smiles": "CO/N=C(/F)C1=CC2CCN(C1)C2", "note": "(configuration not stated)", "values": [{"measurement": "IC50", "setting": "[7]", "value": 630, "unit": "nM"}, {"measurement": "IC50", "setting": "[8]", "value": 26, "unit": "nM"}]}
{"smiles": "CO/N=C\\C1=CC2CCN(C1)C2", "note": "(configuration not stated)", "values": [{"measurement": "IC50", "setting": "[9]", "value": 960, "unit": "nM"}, {"measurement": "IC50", "setting": "[10]", "value": 64, "unit": "nM"}]}
{"smiles": "CO/N=C(/Cl)C1=CC2CCN(C1)C2", "note": "(configuration not stated)", "values": [{"measurement": "IC50", "setting": "[11]", "value": 770, "unit": "nM"}, {"measurement": "IC50", "setting": "[12]", "value": 69, "unit": "nM"}]}
{"smiles": "CO/N=C(/C#N)C1=CC2CCN(C1)C2", "note": "(configuration not stated)", "values": [{"measurement": "IC50", "setting": "[13]", "value": 350, "unit": "nM"}, {"measurement": "IC50", "setting": "[14]", "value": 20, "unit": "nM"}]}
{"smiles": "CO/N=C(/C#N)C1=CCCN(C)C1", "values": [{"measurement": "IC50", "setting": "[15]", "value": 4500, "unit": "nM"}, {"measurement": "IC50", "setting": "[16]", "value": 150, "unit": "nM"}]}
{"smiles": "CO/N=C(/F)C1=CCCN(C)C1", "values": [{"measurement": "IC50", "setting": "[8]", "value": 39, "unit": "nM"}]}
